As a reminder, the minimal effective concentration is the lowest level tested that produced the effect sought.

The subject of the assay is Mouse embryonic stem cells. Briefly: Mouse ES cells keep pluripotency under differentiation medium (DM). The format is cell-based. To be noted: Embryonic stem cell, 144 h, measured by maintenance of GFP expression and colony morphology, differentiation medium (BM+0.3 μM RA or DMEM, 20% FBS), 3 + 3 days incubation. From the text: Materials used for ES cell maintenance, and examples 4 & 5, infra, include: Oct4-GFP mES cells (feeder layer dependent cells); mES R1 cells (feeder layer independent cells); DMEM (GIBCO, 11965-084); Kouckout DMEM (KO DMEM) (GIBCO, 10829-018); DMEM/F12 (GIBCO, 11330-032); Fetal Bovine Serum (FBS) (GIBCO, 26140-079); Knockout Serum Replacer (KO-SR), (GIBCO, 10828-028); B-27 Serum-free Supplement (50X), (GIBCO017504-044); N-2 Supplement (100X) (GIBCO, 17502-048); LIF (10^6 units) (Chemicon, ESG1106); L-Glutamine (GIBCO, 25030-081); Non-essential amino acids (GIBCO, 11140-050); 2-Mercaptoethanol (1000X), (GIBCO, 21985-023); 0.05% Trypsin-EDTA (GIBCO, 25300-054); 0.1% gelatin solution (Stemcell tech., 07903); Basal medium (BM): KO DMEM, 15% KO-SR, 1X L-glutamine, 1X non-essential amino acid, 1×2-mercaptoethanol; and Growth medium (GM): Basal medium+10^3 unit LIF.
DM induced by retinoic acid (RA): BM+0.3 μM RA, DM induced by FBS: DMEM, 20% FBS. Ninety-six well plates are coated with 0.1% gelatin solution at 37° C. overnight. The gelatin solution is removed by aspiration. Mouse embryonic stem cells are plated on gelatin-coated plates at 10^4 cells/50 μl GM/well. After overnight incubation, the medium is changed to DM and 3 μM of a compound of the invention is added to each well. After 3 days incubation, the medium is replaced with fresh medium and compound. After a further 3 days, the cells are fixed and assayed with pluripotent markers expression and colony morphology. An effective concentration is measured by the maintenance of GFP expression and colony morphology. A list of effective concentrations for various compounds of the invention is disclosed in table 3, infra
Consider `Cc1cc(Nc2ncc3c(n2)N(C)C(=O)N(c2cc(NC(=O)c4cccc(C(F)(F)F)c4)ccc2C)C3)cc(C)n1` [N-{3-[7-(2,6-Dimethyl-pyridin-4-ylamino)-1-methyl-2-oxo-1,4-dihydro-2H-pyrimido[4,5-d]pyrimidin-3-yl]-4-methyl-phenyl}-3-trifluoromethyl-benzamide], for which the minimal effective concentration was determined as 5 µM. With `Cc1cc(Nc2ncc3c(n2)N(C)C(=O)N(c2cc(NC(=O)c4cccc(C(F)(F)F)c4)ccc2C)C3)n(C)n1` [N-{3-[7-(2,5-Dimethyl-2H-pyrazol-3-ylamino)-1-methyl-2-oxo-1,4-dihydro-2H-pyrimido[4,5-d]pyrimidin-3-yl]-4-methyl-phenyl}-3-trifluoromethyl-benzamide], the minimal effective concentration was 1 µM. The same measure for `CNc1ncc2c(n1)N(C)C(=O)N(c1cc(NC(=O)c3cccc(C(F)(F)F)c3)ccc1C)C2` [N-[4-Methyl-3-(1-methyl-7-methylamino-2-oxo-1,4-dihydro-2H-pyrimido[4,5-d]pyrimidin-3-yl)-phenyl]-3-trifluoromethyl-benzamide]: 3 µM.

For `Cc1ccc(NC(=O)c2cccc(C(F)(F)F)c2)cc1N1Cc2cnc(Nc3cccc(NS(C)(=O)=O)c3)nc2N(C)C1=O` [N-{3-[7-(3-Methanesulfonylamino-phenylamino)-1-methyl-2-oxo-1,4-dihydro-2H-pyrimido[4,5-d]pyrimidin-3-yl]-4-methyl-phenyl}-3-trifluoromethyl-benzamide], the minimal effective concentration was 2 µM.

`Cc1ccc(NC(=O)c2cccc(C(F)(F)F)c2)cc1N1Cc2cnc(Nc3cccc(O)c3)nc2N(C)C1=O` [N-{3-[7-(3-Hydroxy-phenylamino)-1-methyl-2-oxo-1,4-dihydro-2H-pyrimido[4,5-d]pyrimidin-3-yl]-4-methyl-phenyl}-3-trifluoromethyl-benzamide]: the minimal effective concentration was found to be 1 µM. Then `Cc1ccc(NC(=O)c2cccc(C(F)(F)F)c2)cc1N1Cc2cnc(Nc3ccnn3C)nc2N(C)C1=O` [N-{4-Methyl-3-[1-methyl-7-(2-methyl-2H-pyrazol-3-ylamino)-2-oxo-1,4-dihydro-2H-pyrimido[4,5-d]pyrimidin-3-yl]-phenyl}-3-trifluoromethyl-benzamide], with 1 µM. The same measure for `Cc1ccc(NC(=O)c2cccc(C(F)(F)F)c2)cc1N1Cc2cnc(Nc3cccc(N)c3)nc2N(C)C1=O` [N-{3-[7-(3-Amino-phenylamino)-1-methyl-2-oxo-1,4-dihydro-2H-pyrimido[4,5-d]pyrimidin-3-yl]-4-methyl-phenyl}-3-trifluoromethyl-benzamide]: 2 µM; for `CCn1nccc1Nc1ncc2c(n1)N(C)C(=O)N(c1cc(NC(=O)c3cccc(C(F)(F)F)c3)ccc1C)C2` [N-{3-[7-(2-Ethyl-2H-pyrazol-3-ylamino)-1-methyl-2-oxo-1,4-dihydro-2H-pyrimido[4,5-d]pyrimidin-3-yl]-4-methyl-phenyl}-3-trifluoromethyl-benzamide]: 2 µM; for `CCNc1ncc2c(n1)N(C)C(=O)N(c1cc(NC(=O)c3cccc(C(F)(F)F)c3)ccc1C)C2` [N-[3-(7-Ethylamino-1-methyl-2-oxo-1,4-dihydro-2H-pyrimido[4,5-d]pyrimidin-3-yl)-4-methyl-phenyl]-3-trifluoromethyl-benzamide]: 10 µM.

The values above are taken from US20100234400A1, “COMPOUNDS THAT MAINTAIN PLURIPOTENCY OF EMBRYONIC STEM CELLS” (IRM LLC, priority 2005, published 2010).
